Laboratory results: patent US20250144067A1, “PERSONALIZED STARVATION THERAPY FOR CANCER” (Faeth Therapeutics, Inc., priority 2021, published 2025)
Structures can show the parent of a compound that is named as a salt.

Experiments:
[1] = test system: NCI-H292 lung cancer cells; test: FDA drug screening, complete media vs cholesterol-free media without statin (TABLE 1); format: cell-based, human
[2] = test system: NCI-H292 lung cancer cells; test: FDA drug screening, complete media vs cholesterol-free media with simvastatin (TABLE 2); format: cell-based, human; details: for Cholesterol-free media + simvastatin (0.04 μM) / Complete Media: NCI-H292 cells
[3] = Complete minus Cholesterol-free, greater than 0 enhanced anti-cancer activity, about 0 neutral, below 0 antagonists
[4] = NCI-H292 cells in cholesterol-free media without statin
[5] = NCI-H292 cells in complete media
[6] = FDA drug library screen, cholesterol-free media with simvastatin 0.04 μM
[7] = FDA drug library screen, complete media
[8] = complete media minus cholesterol-free media + simvastatin, >0 enhanced anti-cancer activity, about 0 neutral, <0 antagonist
[9] = Complete minus Cholesterol-free, >0 enhanced anti-cancer activity, about 0 neutral, <0 antagonist
[10] = NCI-H292 cells, cholesterol-free media without statin, FDA drug library screen
[11] = NCI-H292 cells, complete media, FDA drug library screen
[12] = cholesterol-free media with simvastatin 0.04 μM, FDA drug library screen (TABLE 2)
[13] = complete media, FDA drug library screen (TABLE 2)
[14] = complete media minus cholesterol-free media + simvastatin (0.04 μM), >0 enhanced anti-cancer activity, about 0 neutral, <0 antagonist
[15] = NCI-H292 cells, cholesterol-free media without statin
[16] = complete media vs cholesterol-free media + simvastatin (0.04 μM), >0 enhanced anti-cancer activity, about 0 neutral, <0 antagonist
[17] = complete vs cholesterol-free media, […]
[18] = complete media minus cholesterol-free media + simvastatin, […]
[19] = FDA library drug in cholesterol-free media with simvastatin 0.04 μM
[20] = FDA library drug in complete media

Compound	Difference [1, 3]	Cholesterol-free [1, 4]	Cholesterol-free media + simvastatin (0.04 μM) [2, 6]	Complete Media [2, 7]	Difference [1, 9]	Cholesterol-free [1, 15]	Complete ([1]; NCI-H292 cells, complete media)	Difference [2, 16]	further results
O=C[C@H](O)[C@@H](O)[C@H](O)CO (racemic) [DL-Xylose]	−0.70	1.5	0.8322	1.203	–	–	–	–	Complete [1, 5]: 0.7993; Difference [2, 8]: 0.37
O=c1[nH]c(=O)n([C@H]2C[C@H](O)[C@@H](CO)O2)cc1F [Floxuridine]	–	–	–	–	−0.01	–	–	–	Cholesterol-free [1, 10]: 0.09159; Complete [1, 11]: 0.08047; Cholesterol-free media + simvastatin (0.04 μM) [2, 12]: 0.09098; Complete Media [2, 13]: 0.02907; Difference [2, 14]: −0.06
O=C(NCCN1CCOCC1)c1ccc(Cl)cc1 [Moclobemide]	–	–	–	–	−0.27	1.09	0.8213	–	Cholesterol-free media + simvastatin (0.04 μM) [2, 12]: 0.9196; Complete Media [2, 13]: 0.8957; Difference [2, 14]: −0.02
CC(COc1ccccc1)N(CCCl)Cc1ccccc1 (stereo not drawn) [Phenoxybenzamine (hydrochloride)]	–	–	–	–	–	0.9421	0.7375	–	Difference ([1]; Complete minus Cholesterol-free, […]): −0.20; Cholesterol-free media + simvastatin (0.04 μM) [2, 12]: 0.9012; Complete Media [2, 13]: 0.8799; Difference ([2]; complete media minus cholesterol-free media + simvastatin (0.04 μM), […]): −0.02
Pixantrone (dimaleate)	–	–	1.334	1.212	–	1.33	0.8848	−0.12	Difference ([1]; complete vs cholesterol-free media, greater than 0 enhanced anti-cancer activity, about 0 neutral, below 0 antagonists): −0.45
Octreotide (acetate)	–	–	–	1.58	–	1.157	0.7258	–	Difference [1, 17]: −0.43; Difference [2, 18]: 0.17
CC(C)NCC(O)c1ccc(O)c(O)c1 (stereo not drawn) [Isoprenaline (hydrochloride)]	−0.50	1.676	1.496	1.355	–	–	–	−0.14	–
CCCCCCCCCC(=O)N[C@@H](Cc1c[nH]c2ccccc12)C(=O)N[C@H](CC(N)=O)C(=O)N[C@@H](CC(=O)O)C(=O)N[C@@H]1C(=O)NCC(=O)N[C@@H](CCCN)C(=O)N[C@@H](CC(=O)O)C(=O)N[C@H](C)C(=O)N[C@@H](CC(=O)O)C(=O)NCC(=O)N[C@H](CO)C(=O)N[C@@H]([C@H](C)CC(=O)O)C(=O)N[C@@H](CC(=O)c2ccccc2N)C(=O)O[C@@H]1C [Daptomycin]	–	–	1.147	1.33	–	1.025	0.6476	–	Difference [1, 17]: −0.38; Difference [2, 18]: 0.18
CC(C)Cc1ccc([C@H](C)C(=O)O)cc1 [(S)-(+)-Ibuprofen]	–	–	–	–	−0.01	–	–	−0.26	Cholesterol-free [1, 10]: 1.011; Complete [1, 11]: 0.9982; Complete Media ([2]; drug in complete media): 0.9605
C[C@H]1CN(C[C@H](Cc2ccccc2)C(=O)NCC(=O)O)CC[C@@]1(C)c1cccc(O)c1 [Alvimopan (dihydrate)]	−1.02	1.958	–	–	–	–	–	−0.27	Complete [1, 5]: 0.9383; Cholesterol-free media + simvastatin (0.04 μM) [2, 19]: 1.255; Complete Media [2, 20]: 0.9864
C=CC1=C(C(=O)O)N2C(=O)[C@@H](NC(=O)/C(=N\OCC(=O)O)c3csc(N)n3)[C@H]2SC1 [Cefixime]	–	–	–	–	0.05	–	–	−0.24	Cholesterol-free [1, 10]: 1.137; Complete [1, 11]: 1.188; Cholesterol-free media + simvastatin (0.04 μM) ([2]; drug in cholesterol-free media with simvastatin 0.04 μM): 1.663; Complete Media ([2]; drug in complete media): 1.418
Cc1cccc(C)c1NC(=O)C1CCCCN1C (stereo not drawn) [Mepivacaine (hydrochloride)]	−0.61	1.413	1.253	1.396	–	–	–	–	Complete [1, 5]: 0.805; Difference [2, 8]: 0.14
CO[C@H]1O[C@H](COS(=O)(=O)O)[C@@H](O[C@@H]2O[C@@H](C(=O)O)[C@@H](O[C@H]3O[C@H](COS(=O)(=O)O)[C@@H](O[C@@H]4O[C@H](C(=O)O)[C@@H](O[C@H]5O[C@H](COS(=O)(=O)O)[C@@H](O)[C@H](O)[C@H]5NS(=O)(=O)O)[C@H](O)[C@H]4O)[C@H](OS(=O)(=O)O)[C@H]3NS(=O)(=O)O)[C@H](O)[C@H]2OS(=O)(=O)O)[C@H](O)[C@H]1NS(=O)(=O)O [Fondaparinux (sodium)]	–	–	–	–	–	–	–	−0.29	Difference ([1]; Complete minus Cholesterol-free, greater than 0 enhanced anti-cancer activity, about 0 neutral, below 0 antagonist): −0.10; Cholesterol-free ([1]; NCI-H292 cells, FDA drug library screen, cholesterol-free media without statin): 1.098; Complete ([1]; NCI-H292 cells, FDA drug library screen, complete media): 1; Cholesterol-free media + simvastatin (0.04 μM) [2, 19]: 1.182; Complete Media [2, 20]: 0.8937
